Reference: patent US5102786A, “Biological diagnostic assay system” (PB Diagnostic Systems, Inc., priority 1987, dated 1992)

Legend:
[1] = Displacement of phenobarbital from plasma protein (filtration through Centricon PM 10, scintillation counting); conditions: human, plasma
HSA [2] = biological target: T1, HSA (Homo sapiens, UniProt P02768); assay: Displacement of fluorescein from HSA (Centricon 30 filtration, 490 nm)
Protocol: (§1) Experiments were carried out with fluorescein and a fluorescein-theophylline conjugate, respectively, dissolved in HEPES buffer and containing various amounts of HSA. […] The solutions were centrifuged through a Centricon 30 filter at 5000 g and the filtrates were scanned at 490 nm.

[3] = biological target: Human Serum Albumin (HSA) (Homo sapiens, UniProt P02768); assay: Displacement of sulforhodamine 101 from human serum albumin (Centricon 30 filtration, absorbance 586 nm); type: binding
Protocol: Two sets of aqueous solutions, 1.05×10^-5 M in sulforhodamine 101, were prepared in HEPES buffer with varying amounts of HSA.

plasma proteins [4] = biological target: T2, plasma proteins (Homo sapiens, UniProt P02768); assay: in vitro; type: binding
T2 construct: Experiments were conducted with a set of plasma solutions in HEPES buffer; from tissue; host or cells: plasma
Protocol: Experiments were conducted with a set of plasma solutions in HEPES buffer containing ^14 C-labeled phenytoin (9.3×10^-5 M) and varying amounts of PNS.

plasma proteins [5] = assay: Displacement of a theophylline-rhodamine conjugate from plasma proteins (Centricon 30 filtration, 500-600 nm); type: binding, human
Source text: The solutions were centrifuged through a Centricon 30 filter at 5000 g and the filtrates were scanned on a Perkin Elmer λ9 Spectrophotometer at 500-600 nm.

[6] = Solubility of PNS in water; type: physicochemical
B-phycoerythrin = assay: Fluorescent emission of B-phycoerythrin as a function of PNS and ANS; conditions: for effect on fluorescence emission of B-phycoerythrin in solution (in words): 0.125-0.50% agent
Protocol: (§2) The fluorescent emissions of B- and R-phycoerythrin were studied as a function of PNS and 8-anilino-1-naphthalene sulfonic acid (ANS). The experiments were conducted with solutions of the phycoerythrin (1.7×10^-10 M) in HEPES buffer containing varying amounts of PNS and ANS. The phycoerythrins were excited at 560 nm and their emissions measured at 575 nm.

R-phycoerythrin = assay: Fluorescent emission of R-phycoerythrin as a function of PNS and ANS; conditions: for effect on fluorescence emission of R-phycoerythrin in solution (in words): 0.125-0.50% agent
Protocol: as §2

plasma proteins [7] = assay: Displacement of phenobarbital from plasma protein (filtration through Centricon PM 10, scintillation counting)
HSA [8] = biological target: T1, HSA; assay: Displacement of a fluorescein-theophylline conjugate from HSA (Centricon 30 filtration, 490 nm); type: binding; parameters: CONJUGATE (free conjugate in filtrate): unit not given here; conditions: 0.2% PNS
Protocol: as §1

[9] = 0.125% PNS or ANS, excited at 560 nm, emission 575 nm, HEPES buffer

Sequence of Human Serum Albumin (HSA) (P02768 25-609): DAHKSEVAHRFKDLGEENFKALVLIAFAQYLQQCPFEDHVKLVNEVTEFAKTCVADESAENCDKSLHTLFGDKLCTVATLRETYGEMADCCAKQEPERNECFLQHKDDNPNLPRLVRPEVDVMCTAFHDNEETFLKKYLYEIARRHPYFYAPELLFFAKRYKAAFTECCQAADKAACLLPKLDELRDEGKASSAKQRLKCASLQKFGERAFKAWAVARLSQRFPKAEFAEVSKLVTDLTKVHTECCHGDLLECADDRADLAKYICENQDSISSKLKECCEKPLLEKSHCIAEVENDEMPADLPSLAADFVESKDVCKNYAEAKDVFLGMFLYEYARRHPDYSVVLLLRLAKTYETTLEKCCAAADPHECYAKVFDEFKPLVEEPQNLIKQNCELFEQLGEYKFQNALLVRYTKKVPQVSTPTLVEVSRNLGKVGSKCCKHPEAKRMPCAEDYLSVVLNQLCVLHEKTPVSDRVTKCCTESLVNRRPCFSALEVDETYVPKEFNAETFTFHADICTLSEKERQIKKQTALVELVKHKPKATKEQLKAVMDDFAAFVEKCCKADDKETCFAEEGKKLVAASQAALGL
T2 sequence (P02768 25-609): as above
T1 sequence (P02768 25-609): as above

CCC1(c2ccccc2)C(=O)NC(=O)NC1=O [phenobarbital, reference compound]
fraction unbound [1]: ~0.55
fraction unbound at 1 h [1]: 0.555

O=C1OC2(c3ccc(O)cc3Oc3cc(O)ccc32)c2ccccc21 [fluorescein, reference compound]
DYE (free dye in filtrate) (HSA [2]; CONTROL (no PNS), 0% HSA, HEPES buffer): 100
DYE (free dye in filtrate) (HSA [2]; CONTROL (no PNS), 0.075% HSA): 83
DYE (free dye in filtrate) (HSA [2]; CONTROL (no PNS), 0.15% HSA): 69
DYE (free dye in filtrate) (HSA [2]; CONTROL (no PNS), 0.3% HSA): 52
DYE (free dye in filtrate) (HSA [2]; CONTROL (no PNS), 0.5% HSA): 40
DYE (free dye in filtrate) (HSA [2]; CONTROL (no PNS), 0.6% HSA): 35
DYE (free dye in filtrate) (HSA [2]; CONTROL (no PNS), 1.0% HSA): 24
DYE (free dye in filtrate) (HSA [2]; CONTROL (no PNS), 1.2% HSA): 20
DYE (free dye in filtrate) (HSA [2]; CONTROL (no PNS), 1.5% HSA): 17

O=S(=O)([O-])c1cc(S(=O)(=O)O)ccc1C1=c2cc3c4c(c2Oc2c1cc1c5c2CCCN5CCC1)CCC[N+]=4CCC3 [sulforhodamine 101, reference compound]
% SULFORHODAMINE 101 (PASSED THROUGH FILTER) ([3]; CONTROL (no PNS), 0% HSA, HEPES buffer, 10.5 µM): 100%
% SULFORHODAMINE 101 (PASSED THROUGH FILTER) ([3]; CONTROL (no PNS), 0.032% HSA, 10.5 µM): 83%
% SULFORHODAMINE 101 (PASSED THROUGH FILTER) ([3]; CONTROL (no PNS), 0.064% HSA, 10.5 µM): 50%
% SULFORHODAMINE 101 (PASSED THROUGH FILTER) ([3]; CONTROL (no PNS), 0.13% HSA, 10.5 µM): 32%
% SULFORHODAMINE 101 (PASSED THROUGH FILTER) ([3]; CONTROL (no PNS), 0.16% HSA, 10.5 µM): 23%
% SULFORHODAMINE 101 (PASSED THROUGH FILTER) ([3]; CONTROL (no PNS), 0.32% HSA, 10.5 µM): 10%
% SULFORHODAMINE 101 (PASSED THROUGH FILTER) ([3]; CONTROL (no PNS), 0.48% HSA, 10.5 µM): 6%

O=C1NC(=O)C(c2ccccc2)(c2ccccc2)N1 [phenytoin, reference compound]
fraction unbound at 93 µM (plasma proteins [4]; plasma): 0.119

Cn1c(=O)c2[nH]c(CCCC(=O)N3CCN(C(=O)c4ccccc4C4=c5cc6c(cc5Oc5cc7c(cc54)CCCN7CC(=O)NCCS(=O)(=O)O)=[N+](CC(=O)NCCS(=O)(=O)[O-])CCC6)CC3)nc2n(C)c1=O [theophylline-rhodamine conjugate, reference compound]
% CONJUGATE (free conjugate in the filtrate) (plasma proteins [5]; CONTROL (no PNS), 0% plasma, 10 µM): 100%
% CONJUGATE (free conjugate in the filtrate) (plasma proteins [5]; CONTROL (no PNS), 5% plasma, 10 µM): 93%
% CONJUGATE (free conjugate in the filtrate) (plasma proteins [5]; CONTROL (no PNS), 20% plasma, 10 µM): 82%
% CONJUGATE (free conjugate in the filtrate) (plasma proteins [5]; CONTROL (no PNS), 45% plasma, 10 µM): 70%
% CONJUGATE (free conjugate in the filtrate) (plasma proteins [5]; CONTROL (no PNS), 65% plasma, 10 µM): 66%
% CONJUGATE (free conjugate in the filtrate) (plasma proteins [5]; CONTROL (no PNS), 85% plasma, 10 µM): 57%
% CONJUGATE (free conjugate in the filtrate) (plasma proteins [5]; CONTROL (no PNS), 95% plasma in HEPES buffer, 10 µM): 50%

O=S(=O)(O)c1cccc2cccc(Oc3ccccc3)c12 [PNS, 1-phenoxynaphthalene-8-sulfonic acid]
solubility in water ([6]; pH range of interest (above 3, preferably 6 to 8)): soluble in water at the required concentrations
solubility in water ([6]; very low pH, below pH 3): precipitate from solution
B-phycoerythrin rel. fl. intensity in the presence of PNS or ANS (B-phycoerythrin; [9]): 1.0
effect on fluorescence emission of B-phycoerythrin in solution (in words) (B-phycoerythrin): does not affect the fluorescence emissions
B-phycoerythrin rel. fl. intensity in the presence of PNS or ANS (B-phycoerythrin; 0.25% PNS or ANS): 1.0
B-phycoerythrin rel. fl. intensity in the presence of PNS or ANS (B-phycoerythrin; 0.375% PNS or ANS): 1.0
B-phycoerythrin rel. fl. intensity in the presence of PNS or ANS (B-phycoerythrin; 0.50% PNS or ANS): 1.0
providing free sulforhodamine 101 (in words) ([3]; 0.2% PNS): very effective in providing free sulforhodamine 101
% SULFORHODAMINE 101 (PASSED THROUGH FILTER) ([3]; 0.2% PNS, 0% HSA): 100%
% SULFORHODAMINE 101 (PASSED THROUGH FILTER) ([3]; 0.2% PNS, 0.032% HSA): 99%
% SULFORHODAMINE 101 (PASSED THROUGH FILTER) ([3]; 0.2% PNS, 0.064% HSA): 94%
% SULFORHODAMINE 101 (PASSED THROUGH FILTER) ([3]; 0.2% PNS, 0.13% HSA): 88%
% SULFORHODAMINE 101 (PASSED THROUGH FILTER) ([3]; 0.2% PNS, 0.16% HSA): 83%
% SULFORHODAMINE 101 (PASSED THROUGH FILTER) ([3]; 0.2% PNS, 0.32% HSA): 68%
% SULFORHODAMINE 101 (PASSED THROUGH FILTER) ([3]; 0.2% PNS, 0.48% HSA): 61%
% Phenytoin (±3) passed through filter (plasma proteins [4]; 0.1% PNS): 97.5%
providing free phenytoin (in words) (plasma proteins [4]; 0.1-0.5% PNS): very effective in providing free phenytoin
% Phenytoin (±3) passed through filter (plasma proteins [4]; 0.2% PNS): 98.6%
% Phenytoin (±3) passed through filter (plasma proteins [4]; 0.3% PNS): 98.7%
% Phenytoin (±3) passed through filter (plasma proteins [4]; 0.4% PNS): 98.6%
% Phenytoin (±3) passed through filter (plasma proteins [4]; 0.5% PNS): 96.7%
% CONJUGATE (free conjugate in the filtrate) (plasma proteins [5]; 0.2% PNS, 0% plasma): 100%
% CONJUGATE (free conjugate in the filtrate) (plasma proteins [5]; 0.2% PNS, 20% plasma): 94%
% CONJUGATE (free conjugate in the filtrate) (plasma proteins [5]; 0.2% PNS, 40% plasma): 88%
% CONJUGATE (free conjugate in the filtrate) (plasma proteins [5]; 0.2% PNS, 60% plasma): 87%
% CONJUGATE (free conjugate in the filtrate) (plasma proteins [5]; 0.2% PNS, 75% plasma): 89%
% CONJUGATE (free conjugate in the filtrate) (plasma proteins [5]; 0.2% PNS, 90% plasma): 88%
providing free conjugate (in words) (plasma proteins [5]; 0.2% PNS, human plasma): very effective in providing free conjugate
R-phycoerythrin rel. fl. intensity in the presence of PNS or ANS (R-phycoerythrin; [9]): 1.0
effect on fluorescence emission of R-phycoerythrin in solution (in words) (R-phycoerythrin): does not affect the fluorescence emissions
R-phycoerythrin rel. fl. intensity in the presence of PNS or ANS (R-phycoerythrin; 0.25% PNS or ANS): 0.99
R-phycoerythrin rel. fl. intensity in the presence of PNS or ANS (R-phycoerythrin; 0.375% PNS or ANS): 0.99
R-phycoerythrin rel. fl. intensity in the presence of PNS or ANS (R-phycoerythrin; 0.50% PNS or ANS): 0.98
providing free dye (in words) (HSA [2]; 0.2% PNS): effective in providing free dye and free conjugate
DYE (free dye in filtrate) (HSA [2]; 0.2% PNS, 0% HSA): 100
DYE (free dye in filtrate) (HSA [2]; 0.2% PNS, 0.075% HSA): 99
DYE (free dye in filtrate) (HSA [2]; 0.2% PNS, 0.15% HSA): 97
DYE (free dye in filtrate) (HSA [2]; 0.2% PNS, 0.3% HSA): 98
DYE (free dye in filtrate) (HSA [2]; 0.2% PNS, 0.6% HSA): 93
DYE (free dye in filtrate) (HSA [2]; 0.2% PNS, 0.9% HSA): 92
DYE (free dye in filtrate) (HSA [2]; 0.2% PNS, 1.2% HSA): 89
DYE (free dye in filtrate) (HSA [2]; 0.2% PNS, 1.5% HSA): 88
% PHENOBARBITAL (±3%) (passed through filter) (plasma proteins [7]; 0.02% PNS in human plasma): 62.7%
% PHENOBARBITAL (±3%) (passed through filter) (plasma proteins [7]; 0.05% PNS in human plasma): 71.1%
% PHENOBARBITAL (±3%) (passed through filter) (plasma proteins [7]; 0.2% PNS in human plasma): 93.0%
% PHENOBARBITAL (±3%) (passed through filter) (plasma proteins [7]; 0.5% PNS in human plasma): 97.0%
dissociation of phenobarbital from plasma proteins (in words) (plasma proteins [7]; human, plasma): effective to dissociate phenobarbital from the plasma proteins
providing free conjugate (in words) (HSA [8]): effective in providing free dye and free conjugate
CONJUGATE (free conjugate in filtrate) (HSA [8]; 0% HSA): 100
CONJUGATE (free conjugate in filtrate) (HSA [8]; 0.075% HSA): 93
CONJUGATE (free conjugate in filtrate) (HSA [8]; 0.15% HSA): 87
CONJUGATE (free conjugate in filtrate) (HSA [8]; 0.3% HSA): 87
CONJUGATE (free conjugate in filtrate) (HSA [8]; 0.6% HSA): 82
CONJUGATE (free conjugate in filtrate) (HSA [8]; 0.9% HSA): 76
CONJUGATE (free conjugate in filtrate) (HSA [8]; 1.2% HSA): 72
CONJUGATE (free conjugate in filtrate) (HSA [8]; 1.5% HSA): 69

O=S(=O)(O)c1cccc2cccc(Nc3ccccc3)c12 [ANS, 8-anilino-1-naphthalene sulfonic acid, reference compound]
B-phycoerythrin rel. fl. intensity in the presence of PNS or ANS (B-phycoerythrin; [9]): 0.61
effect on fluorescence emission of B-phycoerythrin in solution (in words) (B-phycoerythrin): quenches the emissions of both phycoerythrins very strongly
B-phycoerythrin rel. fl. intensity in the presence of PNS or ANS (B-phycoerythrin; 0.25% PNS or ANS): 0.43
B-phycoerythrin rel. fl. intensity in the presence of PNS or ANS (B-phycoerythrin; 0.375% PNS or ANS): 0.33
B-phycoerythrin rel. fl. intensity in the presence of PNS or ANS (B-phycoerythrin; 0.50% PNS or ANS): 0.25
R-phycoerythrin rel. fl. intensity in the presence of PNS or ANS (R-phycoerythrin; [9]): 0.72
effect on fluorescence emission of R-phycoerythrin in solution (in words) (R-phycoerythrin): quenches the emissions of both phycoerythrins very strongly
R-phycoerythrin rel. fl. intensity in the presence of PNS or ANS (R-phycoerythrin; 0.25% PNS or ANS): 0.54
R-phycoerythrin rel. fl. intensity in the presence of PNS or ANS (R-phycoerythrin; 0.375% PNS or ANS): 0.40
R-phycoerythrin rel. fl. intensity in the presence of PNS or ANS (R-phycoerythrin; 0.50% PNS or ANS): 0.29
